Assays:
[1] = Ratio of IC50 in the cell -amsacrine-resistant Jurkat (JL A) / JL C; type: functional
[2] = Ratio of IC50 in the cell -doxorubicin-resistant Jurkat (JL D) / JL C; type: functional
[3] = tested on: P388; test: Inhibitory activity against murine P388 leukemia (P388) cells.; type: functional, cell-based; conditions: Mus musculus
[4] = Inhibitory concentration to reduce cell number to 50% in a panel of cultured, wild type human Jurkat leukemia (JL C) cells.; type: functional, cell-based
[5] = tested on: NCI-H69; test: Inhibitory activity against drug resistant H69/LX4 line overexpressing P-glycoprotein; type: functional, cell-based; conditions: Homo sapiens
[6] = tested on: Lewis lung carcinoma cell line; test: Inhibitory concentration to reduce cell number to 50% in a panel of cultured, murine Lewis lung carcinoma (LL) cells.; type: functional, cell-based; conditions: Mus musculus
[7] = tested on: NCI-H69; test: Inhibitory activity against parental human small cell lung carcinoma cell line (H69P); type: functional, cell-based
[8] = tested on: P388 (Mus musculus); test: Inhibitory concentration to reduce cell number to 50% in a panel of cultured, murine P388 leukemia (P388) cells.

SMILES | IC50 [3] [nM] | IC50 [4] [nM] | IC50 ([5]; read-out: IC50) [nM] | IC50 [6] [nM] | IC50 [8] [nM] | IC50 [5] [nM] | Ratio [1] | Ratio [2] | IC50 [7] [nM]
CN(C)CCNC(=O)c1cccc2nc3ccc4cnn(C)c4c3nc12 | 8.4 | 44 | 0.92 | 5.9 |  |  | 1 | 1.1 | 109
CN(C)CCNC(=O)c1cccc2nc3ccc4c(cnn4C)c3nc12 |  | 98 | 1.2 | 25 | 59 |  | 0.8 | 0.8 | 130
CN(C)CCNC(=O)c1cccc2nc3ccc4cccnc4c3nc12 |  | 317 | 2.1 | 89 |  |  | 0.7 | 0.9 | 294
CN(C)CCNC(=O)c1cccc2nc3ccc4ccncc4c3nc12 | 16 | 79 | 1.3 | 11 |  |  | 0.8 | 1 | 116
CN(C)CCNC(=O)c1cccc2nc3ccc4nccnc4c3nc12 | 85 | 165 | 1.5 | 54 |  |  | 1 | 0.9 | 234
COc1ccnc2c1ccc1nc3cccc(C(=O)NCCN(C)C)c3nc12 |  |  | 3.2 |  |  |  |  |  | 123
CN(C)CCNC(=O)c1cccc2nc3ccccc3nc12 | 1100 | 2500 |  | 1850 |  |  | 0.8 | 1 | 
COc1nccc2c1ccc1nc3cccc(C(=O)NCCN(C)C)c3nc12 | 14 | 17 | 1.2 | 2.4 |  |  | 0.7 | 0.7 | 21
CN(C)CCNC(=O)c1cccc2nc3ccc4[nH]cnc4c3nc12 | 300 | 159 | 5.2 | 41 |  |  | 0.8 | 0.9 | 183
COc1nccc2c1ccc1nc3cccc(C(=O)N[C@H](CO)CN(C)C)c3nc12 |  |  | 1.2 |  |  |  |  |  | 24
CN(C)CCNC(=O)c1cccc2nc3ccc4ncccc4c3nc12 | 42 | 74 | 1.2 | 20 |  |  | 0.8 | 0.7 | 124
CN(C)CCNC(=O)c1cccc2nc3ccc4[nH]ncc4c3nc12 | 6.8 | 21 | 4.5 | 4.1 |  |  | 4.2 | 4.7 | 107
COc1cccc2c1C(=O)c1c(O)c3c(c(O)c1C2=O)C[C@@](O)(C(=O)CO)C[C@@H]3O[C@H]1C[C@H](N)[C@H](O)[C@H](C)O1 [DOXORUBICIN] |  | 9.6 |  |  |  | 137 |  |  | 

Further lines, with some results ahead:

IC50 [3] [nM] | IC50 [4] [nM] | IC50 ([5]; read-out: IC50) [nM] | IC50 [6] [nM] | IC50 [8] [nM] | IC50 [5] [nM] | SMILES | Ratio [1] | Ratio [2] | IC50 [7] [nM]
37 | 93 | 1.9 | 23 |  |  | CN(C)CCNC(=O)c1cccc2nc3ccc4ccccc4c3nc12 | 0.8 | 0.9 | 67
9.4 |  | 1.4 |  |  |  | COc1cccc2c1ccc1nc3cccc(C(=O)NCCN(C)C)c3nc12 |  |  | 35
10 |  | 1.2 |  |  |  | COc1cccc2c1ccc1nc3cccc(C(=O)N[C@H](C)CN(C)C)c3nc12 |  |  | 23
5.6 | 28 | 0.64 | 6.4 |  |  | CN(C)CCNC(=O)c1cccc2nc3ccc4cnccc4c3nc12 | 3 | 2.8 | 88
2700 |  | > 4 |  |  |  | CN(C)CCNC(=O)c1cccc2nc3ccc4c(O)ccnc4c3nc12 |  |  | 2100
 |  | 1.2 |  |  |  | COc1nccc2c1ccc1nc3cccc(C(=O)N[C@H](C)CN(C)C)c3nc12 |  |  | 24
31 |  | 1.05 |  |  |  | CN(C)CCNC(=O)c1cccc2nc3ccc4c(O)nccc4c3nc12 |  |  | 133
220 |  | 1.7 |  |  |  | CN(C)CCNC(=O)c1cccc2nc3ccc4c(ccn4C)c3nc12 |  |  | 183
98 | 194 | 0.95 | 66 |  |  | CN(C)CCNC(=O)c1cccc2nc3ccc4c[nH]nc4c3nc12 | 1.1 |  | 524

— ChEMBL document CHEMBL1135712, “Structure-activity relationships for pyrido-, imidazo-, pyrazolo-, pyrazino-, and pyrrolophenazinecarboxamides as topoisomerase-targeted anticancer agents” (J Med Chem, 2002)
